Source: patent US7521444B2, “Compounds for the treatment of hepatitis C” (Bristol-Myers Squibb Company, priority 2007, dated 2009)

Columns and labels:
[1] = biological target: T1, HCV NS5B (Hepatitis C virus genotype 1b, UniProt Q9WMX2); assay: HCV NS5B RdRp enzyme assay (standard or modified); type: biochemical; settings: HCV NS5B RdRp genotype 1b enzyme; standard or modified assay not stated
T1 construct: The protein was expressed with an 18 amino acid C-terminal truncation to enhance the solubility; made in house; host or cells: E. coli BL21(DE3), pET21a
Protocol: HCV NS5B RdRp cloning, expression, and purification. The cDNA encoding the NS5B protein of HCV, genotype 1b, was cloned into the pET21a expression vector. The protein was expressed with an 18 amino acid C-terminal truncation to enhance the solubility. The E. coli competent cell line BL21(DE3) was used for expression of the protein. Cultures were grown at 37° C. for ˜4 hours until the cultures reached an optical density of 2.0 at 600 nm. The cultures were cooled to 20° C. and induced with 1 mM IPTG. Fresh ampicillin was added to a final concentration of 50 μg/ml and the cells were grown overnight at 20° C.
Cell pellets (3 L) were lysed for purification to yield 15-24 mgs of purified NS5B. The lysis buffer consisted of 20 mM Tris-HCl, pH 7.4, 500 mM NaCl, 0.5% triton X-100, 1 mM DTT, 1 mM EDTA, 20% glycerol, 0.5 mg/ml lysozyme, 10 mM MgCl2, 15 ug/ml deoxyribonuclease I, and Complete TM protease inhibitor tablets (Roche). After addition of the lysis buffer, frozen cell pellets were resuspended using a tissue homogenizer. To reduce the viscosity of the sample, aliquots of the lysate were sonicated on ice using a microtip attached to a Branson sonicator. The sonicated lysate was centrifuged at 100,000×g for 1 hr at 4° C. and filtered through a 0.2 μm filter unit (Corning).
The protein was purified using two sequential chromatography steps: Heparin sepharose CL-6B and polyU sepharose 4B (Pharmacia). The chromatography buffers were identical to the lysis buffer but contained no lysozyme, deoxyribonuclease I, MgCl2 or protease inhibitor and the NaCl concentration of the buffer was adjusted according to the requirements for charging the protein onto the column. Each column was eluted with a NaCl gradient which varied in length from 5-50 column volumes depending on the column type. After the final chromatography step, the resulting purity of the enzyme is >90% based on SDS-PAGE analysis. The enzyme was aliquoted and stored at −80° C.
Standard HCV NS5B RdRp enzyme assay. HCV RdRp genotype 1b assays were run in a final volume of 60 μl in 96 well plates (Corning 3600). The assay buffer is composed of 20 mM Hepes, pH 7.5, 2.5 mM KCl, 2.5 mM MgCl2, 1 mM DTT, 1.6 U RNAse inhibitor (Promega N2515), 0.01 mg/ml BSA (Sigma B6917), and 2% glycerol. All compounds were serially diluted (3-fold) in DMSO and diluted further in water such that the final concentration of DMSO in the assay was 2%. HCV RdRp genotype 1b enzyme was used at a final concentration of 28 nM. A polyA template was used at 6 nM, and a biotinylated oligo-dT12 primer was used at 180 nM final concentration. Template was obtained commercially (Amersham 27-4110). Biotinylated primer was prepared by Sigma Genosys. 3H-UTP was used at 0.6 μCi (0.29 μM total UTP). Reactions were initiated by the addition of enzyme, incubated at 30° C. for 60 min, and stopped by adding 25 μl of 50 mM EDTA containing SPA beads (4 μg/μl, Amersham RPNQ 0007). Plates were read on a Packard Top Count NXT after >1 hr incubation at room temperature.
Modified HCV NS5B RdRp enzyme assay. A modified enzyme assay was performed essentially as described for the standard enzyme assay except for the following: The biotinylated oligo dT12 primer was precaptured on streptavidin-coated SPA beads by mixing primer and beads in assay buffer and incubating at room temperature for one hour. Unbound primer was removed after centrifugation. The primer-bound beads were resuspended in 20 mM Hepes buffer, pH 7.5 and used in the assay at final concentrations of 20 nM primer and 0.67 μg/μl beads. Order of addition in the assay: enzyme (1.75 nM) was added to diluted compound followed by the addition of a mixture of template (0.36 nM), 3H-UTP (0.6 μCi, 0.29 μM), and primer-bound beads, to initiate the reaction; concentrations given are final. Reactions were allowed to proceed for 4 hours at 30° C.
IC50 values for compounds were determined using seven different [I]. […]

[2] = system: HCV replicon cells; assay: HCV replicon FRET / luciferase assay; type: cell-based; settings: 50% reduction in FRET or luciferase activity
Protocol: FRET Assay Preparation. The HCV FRET screening assay was performed in 96-well cell culture plates. The FRET peptide (Anaspec, Inc.) (Taliani et al., Anal. Biochem. 1996, 240, 60-67) contains a fluorescence donor, EDANS, near one end of the peptide and an acceptor, DABCYL, near the other end. The fluorescence of the peptide is quenched by […] resonance energy transfer (RET) between the donor and the acceptor, but as the NS3 protease cleaves the peptide the products are released from RET quenching and the fluorescence of the donor becomes apparent. The assay reagent was made as follows: 5× cell Luciferase cell culture lysis reagent from Promega (#E153A) diluted to 1× with dH2O, NaCl added to 150 mM final, the FRET peptide diluted to 20 μM final from a 2 mM stock.
To prepare plates, HCV replicon cells, with or without a Renilla luciferase reporter gene, were trypsinized and plated in a 96-well plate with titrated test compounds added in columns 3 through 12; columns 1 and 2 contained a control compound (HCV control inhibitor), and the bottom row contained cells with DMSO only. The plates were then placed in a CO2 incubator at 37° C.
Assays. Subsequent to addition of the test compounds described above (FRET Assay Preparation), at various times the plate was removed and Alamar blue solution (Trek Diagnostics, #00-100) was added to measure cellular toxicity. After reading in a Cytoflour 4000 instrument (PE Biosystems), plates were rinsed with PBS and then used for FRET assay by the addition of 30 ul of the FRET peptide assay reagent described above (FRET Assay Preparation) per well. The plate was then placed into the Cytoflour 4000 instrument which had been set to 340 excite/490 emission, automatic mode for up to 20 cycles and the plate read in a kinetic mode. Typically, the signal to noise using an endpoint analysis after the reads was at least three-fold. Alternatively, after Alamar blue reading, plates were rinsed with PBS, then used for luciferase assay using the Promega Dual-Glo Luciferase Assay System or the Promega EnduRen Live Cell Substrate assay.
Compound analysis was performed by quantification of the relative HCV replicon inhibition and the relative cytotoxicity values. To calculate cytoxicity values, the average Alamar Blue fluorescence signals from the control wells were set as 100% non-toxic. The individual signals in each of the compound test wells were then divided by the average control signal and multiplied by 100% to determine […]. To calculate the HCV replicon inhibition values, an average background value was obtained from the two wells containing the highest amount of HCV control inhibitor at the end of the assay period. These numbers were similar to those obtained from naïve Huh-7 cells. The background numbers were then subtracted from the average signal obtained from the control wells and this number was used as 100% activity. The individual signals in each of the compound test wells were then divided by the averaged control values after background subtraction and multiplied by 100% to determine percent activity. EC50 values were calculated as the concentration which caused a 50% reduction in FRET or luciferase activity. The two numbers generated for the compound plate, percent cytoxicity and percent activity, were used to determine compounds of interest for further analysis.

T1 sequence (Q9WMX2 2420-2992): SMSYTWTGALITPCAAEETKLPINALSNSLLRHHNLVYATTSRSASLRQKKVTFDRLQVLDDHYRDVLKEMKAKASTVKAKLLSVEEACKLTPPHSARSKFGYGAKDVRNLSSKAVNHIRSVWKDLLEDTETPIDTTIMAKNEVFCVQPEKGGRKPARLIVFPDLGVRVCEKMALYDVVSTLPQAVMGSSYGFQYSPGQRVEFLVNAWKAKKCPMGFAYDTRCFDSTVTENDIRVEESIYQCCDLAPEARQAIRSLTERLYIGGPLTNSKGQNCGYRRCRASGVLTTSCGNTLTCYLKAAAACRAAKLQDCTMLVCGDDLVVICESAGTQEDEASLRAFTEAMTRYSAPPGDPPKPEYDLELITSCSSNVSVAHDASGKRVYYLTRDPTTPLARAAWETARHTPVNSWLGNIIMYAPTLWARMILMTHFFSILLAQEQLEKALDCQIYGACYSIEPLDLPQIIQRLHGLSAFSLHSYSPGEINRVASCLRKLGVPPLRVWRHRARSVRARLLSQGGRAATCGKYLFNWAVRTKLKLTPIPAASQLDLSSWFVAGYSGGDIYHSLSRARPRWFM

| SMILES | IC50 [1] [nM] | EC50 ([2]; Hepatitis C virus) [nM] | EC50 [2] [nM] |
| --- | --- | --- | --- |
| COc1ccc2c(c1)C1CC1(C(=O)N1C[C@@H]3CCCN3C[C@@H]1Cc1ccccc1)Cn1c-2c(C2CCCCC2)c2ccc(C(=O)NS(=O)(=O)N(C)C)cc21 (stereo partly drawn) | 4.58 to 500 | 4.58 to 500 | – |
| COc1ccc2c(c1)C1CC1(C(=O)N1CCC[C@H]3CN(C)C[C@H]31)Cn1c-2c(C2CCCCC2)c2ccc(C(=O)NS(=O)(=O)N(C)C)cc21 (stereo partly drawn) | 4.58 to 500 | 4.58 to 500 | – |
| COc1ccc2c(c1)C1CC1(C(=O)N1CCN3CCCC3C1)Cn1c-2c(C2CCCCC2)c2ccc(C(=O)NS(N)(=O)=O)cc21 (stereo not drawn) | 4.58 to 500 | 4.58 to 500 | – |
| COc1ccc2c(c1)C1CC1(C(=O)N1CCN3CCCCC3C1)Cn1c-2c(C2CCCCC2)c2ccc(C(=O)NS(C)(=O)=O)cc21 (stereo not drawn) | 4.58 to 500 | 4.58 to 500 | – |
| COc1ccc2c(c1)C1CC1(C(=O)N1C[C@H]3CNC[C@H]3C1)Cn1c-2c(C2CCCCC2)c2ccc(C(=O)NS(=O)(=O)N(C)C)cc21 (stereo partly drawn) | 4.58 to 500 | 4.58 to 500 | – |
| COc1ccc2c(c1)C1CC1(C(=O)N1CC3CCCN(C(C)=O)C3C1)Cn1c-2c(C2CCCCC2)c2ccc(C(=O)NS(=O)(=O)N(C)C)cc21 (stereo not drawn) [drawing 36] | 4.58 to 500 | – | 4.58 to 500 |
| COc1ccc2c(c1)[C@@H]1C[C@]1(C(=O)N1CC3CCCN(C(C)=O)C3C1)Cn1c-2c(C2CCCCC2)c2ccc(C(=O)NS(=O)(=O)N(C)C)cc21 (stereo partly drawn) [drawing 72] | 4.58 to 500 | 4.58 to 500 | – |
| COc1ccc2c(c1)C1CC1(C(=O)N1CC3CNCC3C1)Cn1c-2c(C2CCCCC2)c2ccc(C(=O)NS(=O)(=O)C3CC3)cc21 (stereo not drawn) | 4.58 to 500 | > 1000 | – |
| COc1ccc2c(c1)C1CC1(C(=O)N1CCN3CCC[C@H]3C1)Cn1c-2c(C2CCCCC2)c2ccc(C(=O)NS(=O)(=O)N3CCC3)cc21 (stereo partly drawn) | 4.58 to 500 | 4.58 to 500 | – |
| COc1ccc2c(c1)C1CC1(C(=O)N1CC3CN(C(=O)OC(C)(C)C)CC3C1)Cn1c-2c(C2CCCCC2)c2ccc(C(=O)NS(=O)(=O)N(C)C)cc21 (stereo not drawn) | 4.58 to 500 | 4.58 to 500 | – |
| COc1ccc2c(c1)C1CC1(C(=O)N1CCN3CCCC3C1)Cn1c-2c(C2CCCCC2)c2ccc(C(=O)NS(=O)(=O)C3CC3)cc21 (stereo not drawn) | 4.58 to 500 | 4.58 to 500 | – |
| COc1ccc2c(c1)C1CC1(C(=O)N1CCN3CCC[C@@H]3C1)Cn1c-2c(C2CCCCC2)c2ccc(C(=O)NS(=O)(=O)C3CC3)cc21 (stereo partly drawn) | 4.58 to 500 | 4.58 to 500 | – |
| COc1ccc2c(c1)C1CC1(C(=O)N1CCN3CCC[C@H]3C1)Cn1c-2c(C2CCCCC2)c2ccc(C(=O)NS(=O)(=O)N3CCOCC3)cc21 (stereo partly drawn) | 4.58 to 500 | 4.58 to 500 | – |
| COc1ccc2c(c1)C1CC1(C(=O)N1CC3CN(C)CC3C1)Cn1c-2c(C2CCCCC2)c2ccc(C(=O)NS(=O)(=O)N(C)C)cc21 (stereo not drawn) | 4.58 to 500 | 4.58 to 500 | – |
| COc1ccc2c(c1)C1CC1(C(=O)N1CC3CN(C(C)=O)CC3C1)Cn1c-2c(C2CCCCC2)c2ccc(C(=O)NS(=O)(=O)N(C)C)cc21 (stereo not drawn) | 4.58 to 500 | 4.58 to 500 | – |
| COc1ccc2c(c1)C1CC1(C(=O)N1CC3CCCN(C(=O)OC(C)(C)C)C3C1)Cn1c-2c(C2CCCCC2)c2ccc(C(=O)NS(=O)(=O)N(C)C)cc21 (stereo not drawn) [drawing 24] | 4.58 to 500 | 4.58 to 500 | – |
| COc1ccc2c(c1)C1CC1(C(=O)N1CC3CCCN(C(C)=O)C3C1)Cn1c-2c(C2CCCCC2)c2ccc(C(=O)NS(=O)(=O)C3CC3)cc21 (stereo not drawn) [drawing 68] | 4.58 to 500 | – | 4.58 to 500 |
| COc1ccc2c(c1)C1CC1(C(=O)N1CC3CCCN(C(=O)OC(C)(C)C)C3C1)Cn1c-2c(C2CCCCC2)c2ccc(C(=O)NS(=O)(=O)N(C)C)cc21 (stereo not drawn) [drawing 20] | 4.58 to 500 | – | 4.58 to 500 |
| COc1ccc2c(c1)C1CC1(C(=O)N1CCC[C@H]3CNC[C@H]31)Cn1c-2c(C2CCCCC2)c2ccc(C(=O)NS(=O)(=O)N(C)C)cc21 (stereo partly drawn) | 4.58 to 500 | 4.58 to 500 | – |
| COc1ccc2c(c1)C1CC1(C(=O)N1CC3CN(C)CC3C1)Cn1c-2c(C2CCCCC2)c2ccc(C(=O)NS(=O)(=O)C3CC3)cc21 (stereo not drawn) | 4.58 to 500 | 4.58 to 500 | – |
| COc1ccc2c(c1)C1CC1(C(=O)N1CC3CCCN(C)C3C1)Cn1c-2c(C2CCCCC2)c2ccc(C(=O)NS(=O)(=O)C3CC3)cc21 (stereo not drawn) | 4.58 to 500 | 4.58 to 500 | – |
| CCS(=O)(=O)NC(=O)c1ccc2c(C3CCCCC3)c3n(c2c1)CC1(C(=O)N2CCN4CCCC4C2)CC1c1cc(OC)ccc1-3 (stereo not drawn) | 4.58 to 500 | 4.58 to 500 | – |
| COc1ccc2c(c1)C1CC1(C(=O)N1CCN3CCCC3C1)Cn1c-2c(C2CCCCC2)c2ccc(C(=O)NS(=O)(=O)N3CCC3)cc21 (stereo not drawn) | 4.58 to 500 | 4.58 to 500 | – |
| COc1ccc2c(c1)C1CC1(C(=O)N1CCN3CCCC3C1)Cn1c-2c(C2CCCCC2)c2ccc(C(=O)NS(=O)(=O)N(C)C)cc21 (stereo not drawn) | 4.58 to 500 | 4.58 to 500 | – |
| COc1ccc2c(c1)C1CC1(C(=O)N1CCC[C@H]3CN(Cc4ccccc4)C[C@H]31)Cn1c-2c(C2CCCCC2)c2ccc(C(=O)NS(N)(=O)=O)cc21 (stereo partly drawn) | 4.58 to 500 | 4.58 to 500 | – |
| COc1ccc2c(c1)C1CC1(C(=O)N1CC3CN(C(=O)N4CCCC4)CC3C1)Cn1c-2c(C2CCCCC2)c2ccc(C(=O)NS(=O)(=O)N(C)C)cc21 (stereo not drawn) | 4.58 to 500 | 4.58 to 500 | – |
| COc1ccc2c(c1)[C@@H]1C[C@]1(C(=O)N1CCN3CCC[C@H]3C1)Cn1c-2c(C2CCCCC2)c2ccc(C(=O)NS(=O)(=O)N(C)C)cc21 | 4.58 to 500 | 4.58 to 500 | – |
